Assays:
[1] = target: T1, human CB1 receptor (Homo sapiens, UniProt P21554); experiment: bioSensAll GAPL-Gi2 BRET biosensor assay in HEK293 cells transfected with hCB1; test compound added before EC75-80 of agonist CP55,940 (0.1 nM); type: cell-based; settings: vs CP55,940 0.1 nM (EC75-80), read-out: CB1 wt Gi2 IC50
T1 construct: expressed in transfected cells; host or cells: HEK293
Summary of the method: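 Test compounds at 12 doses up to 600 nM preceded a 0.1 nM CP55,940 challenge in hCB1/GAPL-Gi2 HEK293 cells. After overnight 37° C incubation, methoxy e-coelenterazine (2 µM final) was added and the 515/400 nm BRET ratio normalized to positive and negative controls.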

[2] = target: T1, human CB1 receptor; experiment: bioSensAll β-arrestin2 plasma membrane translocation (+GRK2) BRET biosensor assay in HEK293 cells transfected with hCB1; test compound added before EC75-80 of agonist CP55,940 (100 nM); type: cell-based; settings: βArrestin2 (+GRK2) BRET biosensor, vs CP55,940 100 nM (EC75-80), read-out: CB1 wt βarr2 IC50
Summary of the method: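 HEK293 cells co-transfected with hCB1 and β-arrestin2 PM-translocation BRET biosensor (+GRK2); 48 h post-transfection in HBSS, test compound (0–600 nM, 12 points) added 3–5 min before CP55,940 at 100 nM (EC75-80). Overnight incubation at 37 °C; BRET (515/400 nm) read after 2 µM e-coelenterazine Prolume Purple, standardized to controls.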

T1 sequence (P21554 whole entry): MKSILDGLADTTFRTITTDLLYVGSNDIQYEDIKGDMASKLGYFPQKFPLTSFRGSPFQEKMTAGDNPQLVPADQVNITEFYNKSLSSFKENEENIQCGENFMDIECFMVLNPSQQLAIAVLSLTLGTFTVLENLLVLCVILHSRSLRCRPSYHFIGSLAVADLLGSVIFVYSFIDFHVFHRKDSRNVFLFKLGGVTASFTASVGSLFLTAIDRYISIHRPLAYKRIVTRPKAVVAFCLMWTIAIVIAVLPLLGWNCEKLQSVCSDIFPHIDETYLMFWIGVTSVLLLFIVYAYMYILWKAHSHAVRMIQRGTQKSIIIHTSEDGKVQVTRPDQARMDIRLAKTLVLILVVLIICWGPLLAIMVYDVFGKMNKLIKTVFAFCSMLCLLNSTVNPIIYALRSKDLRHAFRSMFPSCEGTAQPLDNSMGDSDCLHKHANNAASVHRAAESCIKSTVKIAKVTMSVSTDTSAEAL

| Structure (SMILES) | IC50 [1] [nM] | IC50 [2] [nM] |
| --- | --- | --- |
| CC1(C(N)=O)CCN(c2nc(-c3cc[nH]n3)nc3c2nc(-c2ccccc2Cl)n3-c2ccc(Cl)cc2)CC1 [Compound 44] | 2.1 | 10 |
| CC1(C(N)=O)CCN(c2nc(N3C[C@H]4CCC[C@H]4C3)nc3c2nc(-c2ccccc2Cl)n3-c2ccc(Cl)cc2)CC1 [Compound 14, 1-[2-[(3aS,6aR)-3,3a,4,5,6,6a-hexahydro-1H-cyclopenta[c]pyrrol-2-yl]-8-(2-chlorophenyl)-9-(4-chlorophenyl)purin-6-yl]-4-methyl-piperidine-4-carboxamide] | 6.5 | 34.5 |
| CN(CCO)c1nc(-c2ccc(C(F)(F)F)nc2)c2nc(-c3ccccc3Cl)n(-c3ccc(Cl)cc3)c2n1 [Compound 165] | 0.413 | 2.03 |
| CC(C)Oc1nc(OC(C)C)c2nc(-c3ccccc3Cl)n(-c3ccc(Cl)cc3)c2n1 [Compound 205] | 6.04 | 54.6 |
| C[C@H]1CN(c2nc(OCC(C)(C)O)nc3c2nc(-c2ccccc2Cl)n3-c2ccc(Cl)cc2)CCO1 [Compound 210] | 1.56 | 18.7 |
| CC(C)(O)COc1nc(N2CCC(C(N)=O)CC2)c2nc(-c3ccccc3Cl)n(-c3ccc(Cl)cc3)c2n1 [Compound 198] | 7.69 | 31.5 |
| CN(CCO)c1nc(N2CC(C)(C#N)C2)c2nc(-c3ccccc3Cl)n(-c3ccc(Cl)cc3)c2n1 [Compound 75] | 0.399 | 0.834 |
| CC(C)(O)CNc1nc(N2CCC(C)(C(N)=O)CC2)c2nc(-c3ccc(C#N)nc3)n(-c3ccc(Cl)cc3)c2n1 [Compound 111, 1-[9-(4-chlorophenyl)-8-(6-cyano-3-pyridyl)-2-[(2-hydroxy-2-methyl-propyl)amino]purin-6-yl]-4-methyl-piperidine-4-carboxamide] | 18.4 | 53.7 |
| CC(C)(O)COc1nc(N2CC(C)(C(N)=O)C2)c2nc(-c3ccc(C#N)nc3)n(-c3ccc(Cl)cc3)c2n1 [Compound 138] | 34.1 | > 5000 |
| CN1CCN(c2nc(N(C)CCO)nc3c2nc(-c2ccccc2Cl)n3-c2ccc(Cl)cc2)CC1 [Compound 168] | 1.93 | 12 |
| FC(F)(F)C1CCN(c2nc(OCCNCc3ccccc3)nc3c2nc(-c2ccccc2Cl)n3-c2ccc(Cl)cc2)CC1 [Compound 62, N-benzyl-2-[8-(2-chlorophenyl)-9-(4-chlorophenyl)-6-[4-(trifluoromethyl)-1-piperidyl]purin-2-yl]oxy-ethanamine] | 6.14 | 7.62 |
| CCNC1(C(N)=O)CCN(c2nc(NC(C)=O)nc3c2nc(-c2ccccc2Cl)n3-c2ccc(Cl)cc2)CC1 [Compound 145] | 0.973 | 3 |
| CC(=O)NC(=N)Nc1nc(N2CCC(C)(C(N)=O)CC2)c2nc(-c3ccccc3Cl)n(-c3ccc(Cl)cc3)c2n1 [Compound 18, 1-[2-[(N-acetylcarbamimidoyl)amino]-8-(2-chlorophenyl)-9-(4-chlorophenyl)purin-6-yl]-4-methyl-piperidine-4-carboxamide] | 3.73 | 11.3 |
| CC(C)C(=O)Nc1nc(N2CCC(C)(C(N)=O)CC2)c2nc(-c3ccccc3Cl)n(-c3ccc(Cl)cc3)c2n1 [Compound 1, 1-[8-(2-chlorophenyl)-9-(4-chlorophenyl)-2-(2-methylpropanoylamino)purin-6-yl]-4-methyl-piperidine-4-carboxamide] | 4.3 | 15.2 |
| CCOC1(C(N)=O)CCN(c2nc(NCC(C)(C)O)nc3c2nc(-c2ccc(C#N)nc2)n3-c2ccc(Cl)cc2)CC1 [Compound 132, 1-[9-(4-chlorophenyl)-8-(6-cyano-3-pyridyl)-2-[(2-hydroxy-2-methyl-propyl)amino]purin-6-yl]-4-ethoxy-piperidine-4-carboxamide] | 17.8 | > 5000 |
| CC(C)n1cncc1-c1nc2c(N3CCC(C)(C(N)=O)CC3)nc(N(C)CCO)nc2n1-c1ccc(Cl)cc1 [Compound 59, 1-[9-(4-chlorophenyl)-2-[2-hydroxyethyl(methyl)amino]-8-(3-isopropylimidazol-4-yl)purin-6-yl]-4-methyl-piperidine-4-carboxamide] | > 5000 | > 5000 |

Results, then the molecule that gave them:

| IC50 [1] [nM] | IC50 [2] [nM] | Structure (SMILES) |
| --- | --- | --- |
| 2.76 | 21.8 | FC(F)(F)C1CCN(c2nc(N3C[C@H]4C[C@H]4C3)nc3c2nc(-c2ccccc2Cl)n3-c2ccc(Cl)cc2)CC1 [Compound 31, 2-[(1R,5S)-3-azabicyclo[3.1.0]hexan-3-yl]-8-(2-chlorophenyl)-9-(4-chlorophenyl)-6-[4-(trifluoromethyl)-1-piperidyl]purine] |
| 1.3 | 1.83 | OC[C@@H]1CCCN1c1nc(N2CCC(C(F)(F)F)CC2)c2nc(-c3ccccc3Cl)n(-c3ccc(Cl)cc3)c2n1 [Compound 162, [(2S)-1-[8-(2-chlorophenyl)-9-(4-chlorophenyl)-6-[4-(trifluoromethyl)-1-piperidyl]purin-2-yl]pyrrolidin-2-yl]methanol] |
| 0.934 | 1.94 | CN1C[C@H](F)C[C@H]1COc1nc(N2CCC(C)(C(N)=O)CC2)c2nc(-c3ccccc3Cl)n(-c3ccc(Cl)cc3)c2n1 [Compound 232] |
| 1.33 | 11.3 | Cc1ccn(-c2nc(N3CCC(C(F)(F)F)CC3)c3nc(-c4ccccc4Cl)n(-c4ccc(Cl)cc4)c3n2)n1 [Compound 22, 8-(2-chlorophenyl)-9-(4-chlorophenyl)-2-(3-methylpyrazol-1-yl)-6-[4-(trifluoromethyl)-1-piperidyl]purine] |
| 0.606 | 1.43 | CC1(C(N)=O)CCN(c2nc(N3CC[C@@H](O)C3)nc3c2nc(-c2ccccc2Cl)n3-c2ccc(Cl)cc2)CC1 [Compound 93, 1-[8-(2-chlorophenyl)-9-(4-chlorophenyl)-2-[(3R)-3-hydroxypyrrolidin-1-yl]purin-6-yl]-4-methyl-piperidine-4-carboxamide] |
| 1.42 | 4.98 | FC(F)(F)C1CCN(c2nc(OC3CCCOC3)nc3c2nc(-c2ccccc2Cl)n3-c2ccc(Cl)cc2)CC1 (centres unmarked) [Compound 33, 8-(2-chlorophenyl)-9-(4-chlorophenyl)-2-tetrahydropyran-3-yloxy-6-[4-(trifluoromethyl)-1-piperidyl]purine] |
| 0.916 | 2.8 | CC1(C(N)=O)CCN(c2nc(N3CC[C@@](C)(O)C3)nc3c2nc(-c2ccccc2Cl)n3-c2ccc(Cl)cc2)CC1 [Compound 223] |
| 0.713 | 2.95 | CC1(C(N)=O)CCN(c2nc(N3CC[C@@H](O)C3)nc3c2nc(-c2ccc(C#N)nc2)n3-c2ccc(Cl)cc2)CC1 [Compound 131, 1-[9-(4-chlorophenyl)-8-(6-cyano-3-pyridyl)-2-[(3R)-3-hydroxypyrrolidin-1-yl]purin-6-yl]-4-methyl-piperidine-4-carboxamide] |
| 0.398 | 2.92 | CC(C)(O)COc1nc(N2CCC(C)(C(N)=O)CC2)c2nc(-c3ccccc3Cl)n(-c3ccc(Cl)cc3)c2n1 [Compound 9, 1-[8-(2-chlorophenyl)-9-(4-chlorophenyl)-2-(2-hydroxy-2-methyl-propoxy)purin-6-yl]-4-methyl-piperidine-4-carboxamide] |
| 0.922 | 2.74 | CC(O)COc1nc(N2CCC(C)(C(N)=O)CC2)c2nc(-c3ccccc3Cl)n(-c3ccc(Cl)cc3)c2n1 (single isomer, unassigned) [Compound 8, 1-[8-(2-chlorophenyl)-9-(4-chlorophenyl)-2-(2-hydroxypropoxy)purin-6-yl]-4-methyl-piperidine-4-carboxamide] |
| 0.255 | 0.568 | CC1(C(N)=O)CCN(c2nc(N3CCC[C@H]3CO)nc3c2nc(-c2ccccc2Cl)n3-c2ccc(Cl)cc2)CC1 [Compound 20, 1-[8-(2-chlorophenyl)-9-(4-chlorophenyl)-2-[(2S)-2-(hydroxymethyl)pyrrolidin-1-yl]purin-6-yl]-4-methyl-piperidine-4-carboxamide] |
| 1.02 | 12.2 | CS(=O)(=O)CCNc1nc(N2CCC(C(F)(F)F)CC2)c2nc(-c3ccccc3Cl)n(-c3ccc(Cl)cc3)c2n1 [Compound 28, 8-(2-chlorophenyl)-9-(4-chlorophenyl)-N-(2-methylsulfonylethyl)-6-[4-(trifluoromethyl)-1-piperidyl]purin-2-amine] |
| 2.03 | 10.4 | Cc1ccn(-c2nc(N3CCC(C)(C(N)=O)CC3)c3nc(-c4ccccc4Cl)n(-c4ccc(Cl)cc4)c3n2)n1 [Compound 4, 1-[8-(2-chlorophenyl)-9-(4-chlorophenyl)-2-(3-methylpyrazol-1-yl)purin-6-yl]-4-methyl-piperidine-4-carboxamide] |
| 1.2 | 5.91 | CN(CCO)c1nc(N2CCC(C)(C(N)=O)CC2)c2nc(-c3ccccc3)n(-c3ccc(Cl)cc3)c2n1 [Compound 48, 1-[9-(4-chlorophenyl)-2-[2-hydroxyethyl(methyl)amino]-8-phenyl-purin-6-yl]-4-methyl-piperidine-4-carboxamide] |
| 2.6 | 17 | CC(C)(O)COc1nc(N2CCC(C)(C(N)=O)CC2)c2nc(-c3ccncc3Cl)n(-c3ccc(Cl)cc3)c2n1 [Compound 121, 1-[9-(4-chlorophenyl)-8-(3-chloro-4-pyridyl)-2-(2-hydroxy-2-methyl-propoxy)purin-6-yl]-4-methyl-piperidine-4-carboxamide] |
